Data: patent US10052368B2, “Pegylated tissue kallikrein, and preparation method therefor and uses thereof” (ZONHON BIOPHARMA INSTITUTE INC., priority 2013, dated 2018)
Entries after “also recorded” stand apart in the source; their conditions may differ.

Columns and labels:
[1] = Pharmacokinetics by 125I isotope labelling tracer method; type: in vivo; details: rats, 1.5 U/kg via vena caudalis; for T½β: 2-compartment model
Procedure: The in vivo blood drug concentrations of kallikrein before and after the PEG modification were studied employing a ^125I isotope labelling tracer method in this example. In order to reduce the absorption of the labelled drug by the thyroid gland of rats, 1 ml of a 1% KI (Sinopharm Group) solution was intraperitoneally injected about 8 hours before the experiment, to saturate the thyroid gland of the rats. The rats were randomly divided into 3 groups, i.e., a conjugate 3 group, a kallikrein group, and a urinary kallikrein group, 8 in each group, half male and half female (purchased from Experimental Animal Center of Zhejiang Province).
A particular operation method is as follows:
1. Hydroxy on the amino acid residue phenyl ring in a protein molecule is substituted with radioiodine, to obtain the above protein with ^125I having a radioactive tracing effect.
2. Numbering is performed on the rats using picric acid according to the numbering rule, and weighing is performed. After fixing with a rat fixer, administration is performed by injection through vena caudalis (1.5 U/kg). The rat is let go immediately after the dosage, and allowed to move around, drink water, and eat food freely.
3. 0.2 mL of blood is taken from eye sockets 1 min, 3 min, 10 min, 20 min, 40 min, 60 min, 2 h, 4 h, 8 h, 12 h, 24 h, 48 h, 72 h, 96 h, and 120 h respectively after the dosage, and EDTA is added therein for anticoagulation.
4. The rat plasma is subjected to centrifugal separation at 5000 rpm for 3 min, and determined for plasma radioactivity using a gamma counter (Anke Zhongjia, GC-911), for 1 min.
5. Plasma is recovered after radioactivity determination, and undegraded proteinogenous drugs are separated by HPLC (Shimadzu LC-20AT).

[2] = tested on: db/db mice as animal models for diabetic nephropathy; experiment: Diabetic nephropathy model in db/db mice; type: in vivo; details: for 24-h urea nitrogen after administration, compared with the model group / 24-h urine creatinine after administration, compared with the model group / 24-h urine protein after administration, compared with the model group / 24-h urine volume after administration, compared with the model group: 2 μg/kg via vena caudalis, 2 months, original protein once a week, conjugate 3 once every 2 weeks
Procedure: db/db mice (purchased from Shanghai Slaccas Experimental Animal Co., LTD., grade SPF, 8-week aged, male, with a conformity certification No. of 2007000552656) were employed as animal models for diabetic nephropathy. A model group, a kallikrein (purchased from Changzhou Qianhong Biochemical Pharmaceutical Co., LTD.) original protein group and a conjugate 3 group were provided respectively. The administered dose was 2 μg/kg (calculated according to the protein amount), through vena caudalis, where the model group and the original protein group were dosed once a week, and the conjugate 3 group was dosed once every 2 weeks, for 2 continuous months before detection of urine volume, urine protein, urea nitrogen and urine creatinine. (Urine protein detection kits, urine creatinine detection kits, and urea nitrogen detection kits were all purchased from Nanjing Jiaticheng Bioengineering Co., LTD.)

[3] = Thermostability: activity after standing in a water bath at 65° C.; type: physicochemical; details: for thermostability in comparison with the original protein: 65° C. water bath, 0-30 min
Procedure: In order to confirm whether the PEG modification can increase the stability of kallikrein, the activity of the conjugates 1 and 3 and the original protein after standing for a period of time in a water bath at 65° C. was detected respectively in this example. The method specifically included the following steps. The conjugates 1 and 3 and the unmodified kallikrein dissolved in a PBS buffer at a protein concentration of 1 mg/mL were stood in a water bath at 65° C., sampled at 0 min, 2.5 min, 5 min, 7.5 min, 10 min, 20 min, 25 min, and 30 min respectively, and stored in freezer at […] for later use. After sampling, the biological activity was detected by employing the method (i.e., the method described in appendix IX F in Pharmacopoeia of People's Republic of China, Section 3, 2005 version).

[4] = tested on: cerebral ischemia reperfusion model of middle cerebral artery obstruction (MCAO); experiment: Cerebral ischemia reperfusion model of middle cerebral artery obstruction (MCAO); type: in vivo; details: SD rats, 3 μg/kg once via vena caudalis; for Cerebral infarction area (%) / Score of neurologic deficit symptom: 24 h after reperfusion; for Cerebral infarction area (%): TTC staining; for Score of neurologic deficit symptom: improved Bederson 5-point system
Source text: A cerebral ischemia reperfusion model of middle cerebral artery obstruction (MCAO) was established by thread embolizing the internal carotid artery of SD rats (purchased from Shanghai Sippr bk Laboratory Animal Co. LTD.) A positive control 1 group (urinary kallikrein, Guangdong Tianpu Biochemical Pharmaceutical Co., LTD.), a positive control 2 group (tPA, Shanghai Boehringer Ingelheim Pharmaceuticals Co., LTD), a model control group (PBS), a sham group, a kallikrein group (from Changzhou Qianhong Biochemical Pharmaceutical Co., LTD.), a conjugate 1 group, a conjugate 2 group, a conjugate 3 group, and a conjugate 4 group were arranged respectively. Administration by injection through vena caudalis was performed once at 3 μg/kg (calculated according to the protein amount) immediately after the cerebral ischemia reperfusion. Neurologic deficit symptoms were observed 24 h after the reperfusion, and the cerebral infarction area was determined. In the model group, an equal volume of PBS was injected through vena caudalis into the rat. In the sham group, only blood vessels were separated, no embolizing thread was inserted, and an equal volume of PBS was injected through vena caudalis into the rats. Neurologic deficit symptoms were evaluated employing an improved Bederson 5-point system method. Neurologic deficit symptoms of the rats after brain trauma were evaluated by a single-blind method, i.e., the animals were marked according to groups by designers of the experiment, and scores of the neurologic deficit symptoms were given by experimenters blind to the grouping situation. The cerebral infarction area was calculated employing the following method. Cerebrums of the SD rats were stained with TTC (2,3,5-triphenyltetrazolium chloride) and then the photographs were subjected to statistics using an image analysis software, and the percentage of cerebral infarction area was calculated according to the following formula: % cerebral infarction area=100×(total ischemic area/total area on the right side)

[5] = In vitro activity of PEG-KLK1 conjugates (BAEE degradation, absorbance change); type: biochemical; details: BAEE substrate, versus original unmodified protein
Source text: N-benzoyl-L arginine ethyl ester hydrochloride (BAEE, purchased from sigma Inc.) may be degraded by Kallikrein, and the activity of kininogenase may be determined according to the change in the absorbance before and after the enzymatic reaction, see Pharmacopoeia of People's Republic of China, pages 850-851, Section 2, 2010 version for a particular determination method. Samples to be detected were, respectively, SC-PEG5000-KLK1 (conjugate 1), Y-PALD-20K-KLK1 (conjugate 2), Y-PALD-30K-KLK1 (conjugate 3), and Y-PALD-40K-KLK1 (conjugate 4) from Preparation Example 1, and the original unmodified protein.
The recombinant expressed low-molecular weight human kallikrein (hK1K1) from Example 10 was modified with a Y-PALD-30K modifier, and after the modification, a mono-modified product (Y-PALD-30K-hK1K1) was prepared according to the method described in Example 1. […] According to the experimental method in Example 2, the activity of human kallikrein (hK1K1) before and after the modification was determined.
The recombinant human kallikrein expressed in CHO cells prepared in Example 12 was modified with a Y-PALD-30K modifier, and after the modification, a mono-modified product (Y-PALD-30K-rhK1K1) was prepared according to the method described in Example 1. […] According to the experimental method in Example 2, the activity of human kallikrein before and after the modification was determined.

[6] = tested on: anti-kallikrein antibody level in serum; set-up: species or system mice; details: mouse, in vivo, 1 mg/kg
Procedure: Relative immunogenicity of different PEG-KLK1 conjugates to mice was determined in this example, and compared with the original protein. The experiment was divided into a conjugate 2 group, a conjugate 3 group, a urinary kallikrein group and an original protein group. 1 mg/kg (calculated according to the protein amount) of the above protein was injected through vena caudalis into the mice at a frequency of twice a week, for 4 continuous weeks. Blood was taken from eye sockets 1 week after administration. The anti-kallikrein antibody level in serum was determined by […].

Substance | AUC [1] [ng·h/mL] | CL [1] [mL/min/kg] | V [1] [L/kg] | T½β [1] [h] | 24-h urea nitrogen after administration, compared with the model group [2] | 24-h urine creatinine after administration, compared with the model group [2] | 24-h urine protein after administration, compared with the model group [2] | 24-h urine volume after administration, compared with the model group [2] | activity after standing for 10 min at 65° C. ([3]; 1 mg/mL in PBS, 65° C., 10 min) | amelioration of cerebral infarction status of the model animals (in words) [4] | Cerebral infarction area (%) [4] [%] | Score of neurologic deficit symptom [4] | thermostability in comparison with the original protein [3] | activity retained, of the activity of the original protein [5] [%] | antibody titers on mice compared with kallikrein from porcine pancreas and urinary kallikrein [6] | relative immunogenicity to mice compared with conjugate 2 [6] | efficacy compared with the original protein group ([2]; conjugate 3 once every 2 weeks versus original protein once a week) | activity after standing for 20 min at 65° C. ([3]; 1 mg/mL in PBS, 65° C., 20 min)
Kallikrein | 18.59 | 2.17 | 3.53 | 18.81 | significantly reduced | significantly reduced | significantly reduced | significantly reduced | substantially lost | no apparent amelioration | 26.52 ± 3.67 | 2.41 ± 0.19 | – | – | – | – | – | –
Positive control 1: urinary kallikrein sourced from human urine, Guangdong Tianpu Biochemical Pharmaceutical [reference compound] | 11.68 | 3.5 | 5.16 | 17.49 | – | – | – | – | – | – | 24.49 ± 3.96 | 2.47 ± 0.21 | – | – | – | – | – | –
SC-PEG5000-KLK1 [Conjugate 1, reference compound] | – | – | – | – | – | – | – | – | – | only partially ameliorated; also recorded: slightly ameliorate | 27.67 ± 4.34 | 2.45 ± 0.27 | unobvious | 81 | – | – | – | –
Y-PALD-20K-KLK1 [Conjugate 2] | – | – | – | – | – | – | – | – | – | apparent protective effects; also recorded: better therapeutic effect | 21.34 ± 1.70 | 2.27 ± 0.24 | – | 83 | much lower | – | – | –
Y-PALD-30K-KLK1 [Conjugate 3] | 113.62 | 0.33 | 0.64 | 20.03 | significantly reduced | significantly reduced | significantly reduced | significantly reduced | – | apparent protective effects; also recorded: better therapeutic effect | 17.16 ± 4.07 | 2.10 ± 0.23 | significantly increased | 90 | much lower | slightly lower | apparently superior | still has a certain activity
Y-PALD-30K-hK1K1 | – | – | – | – | – | – | – | – | – | – | – | – | – | 85 | – | – | – | –
Y-PALD-30K-rhK1K1 | – | – | – | – | – | – | – | – | – | – | – | – | – | 88 | – | – | – | –
Y-PALD-40K-KLK1 [Conjugate 4] | – | – | – | – | – | – | – | – | – | essentially did not reduce; also recorded: no apparent amelioration | 31.27 ± 5.08 | 2.65 ± 0.34 | – | 86 | – | – | – | –
